Among the data in PubChem BioAssay AID812 (SRMLSC, 2007) are EC50 values, retold here.

Each structure is given as a SMILES string. Active and inactive are the calls of the source. No rule for the calls is given here. A value given as a limit tells only on which side of the number the result lay.

One may read the EC50 as the concentration giving half of the maximal effect.

The subject of this test is Saccharomyces cerevisiae lifespan extension, no nicotinamide. In words: yeast lifespan extension without nicotinamide, confirmation, yeast lifespan extension project, S. cerevisiae (AID 812).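 Also: growth read as optical density after 42 hours of incubation at 30C.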
As to `O=S(=O)(CCSc1ccccn1)c1nc2ccccc2s1`, the EC50 is > 40 µM (inactive).

Consider `COc1ccc(-c2noc(CSc3nnc(-c4ccncc4)n3-c3ccc(F)cc3)n2)cc1OC`, for which the EC50 is > 40 µM (inactive).

As for `Cc1cccc(OC(=O)n2c(=S)oc3cc(Cl)ccc32)c1`, the EC50 is > 40 µM (inactive).

In the case of `CCCCSc1[nH]c(=O)c(C(=O)OCC)cc1C#N`, the EC50 was > 40 µM (inactive).

On to `CCOC(=O)c1nnn(-c2nonc2N)c1CN1CCc2ccccc2C1`, for which the EC50 was > 40 µM (inactive).

For the compound `CCOC(=O)/C(=C\c1cn(C)c2ccccc12)[N+](=O)[O-]`, the EC50 is > 40 µM (inactive).

Turning to `COc1cccc(C(=O)Oc2cc(N)n(S(=O)(=O)c3ccc(C)cc3)n2)c1OC`, the EC50 is > 40 µM (inactive).

On to `CN1C(=O)NC(c2ccc(O)cc2)C(C(=O)c2cccs2)C1(O)C(F)(F)F` (configuration not stated), for which the EC50 was > 40 µM (inactive).

On to `COc1ccccc1C(=O)Oc1cc(N)n(S(=O)(=O)c2ccc(C)cc2)n1`, for which the EC50 is > 40 µM (inactive).

Take `O=C(N/N=C/c1cccc(F)c1)c1c(O)c2ccccc2[nH]c1=O`: the EC50 was > 40 µM (inactive).

As for `COc1ccc(C(=O)Nc2ccc(OCc3ccccc3)cc2)cc1[N+](=O)[O-]`, the EC50 is > 40 µM (inactive).

For `COCCCN(C(=S)Nc1cc(Cl)cc(Cl)c1)C(C)c1ccncc1` (configuration not stated), the EC50 is > 40 µM (inactive).

For the compound `O=c1[nH]c2ccccc2nc1C(Cl)c1ccccc1` (configuration not stated), the EC50 is > 40 µM (inactive).

For `O=c1[nH]c2ccccc2nc1Cc1ccccc1`, the EC50 is > 40 µM (inactive).

For `N#C/C(=C\c1ccccc1)C(=O)N(c1ccccn1)C1CCCCC1`, the EC50 was > 40 µM (inactive).

In the case of `Cc1ccc(N(C(=O)CS(=O)CC(=O)Nc2ccc(F)cc2)C(C(=O)NC2CCCCC2)c2ccco2)cc1` (configuration not stated), the EC50 is > 40 µM (inactive).

On to `COC(=O)C1=C(C(=O)OC)C(c2cc(Br)ccc2O)c2sc(=O)[nH]c2S1` (configuration not stated), for which the EC50 is > 40 µM (inactive).

For `CCOC(=O)C1Cc2cc3c(cc2C1=O)CC(C(=O)OCC)C3=O` (configuration not stated), the EC50 was > 40 µM (inactive).

Consider `CCCCn1c(=O)c(C(=O)Nc2cnccn2)c(O)c2ccccc21`, for which the EC50 is > 40 µM (inactive).

As to `COc1ccccc1-c1c(C)oc2cc(OC(=O)c3ccco3)ccc2c1=O`, the EC50 was > 40 µM (inactive).

With `COCCCNc1c2c3c(cccc3[nH]c1=O)C(=O)c1ccccc1-2`, the EC50 was > 40 µM (inactive).

`CCCN1C(=O)/C(=C/c2ccncc2)SC1=S`: the EC50 is > 40 µM (inactive).

As for `O=C(Nc1nc2ccccc2n1CCN1CCOCC1)c1cn(-c2ccccc2)nc1-c1ccccc1`, the EC50 is > 40 µM (inactive).

With `N=c1c2c(-c3ccccc3)c(-c3ccccc3)n(Cc3ccco3)c2ncn1CCCn1ccnc1`, the EC50 is > 40 µM (inactive).

As for `CCOC(=O)c1c(C)oc2c1c(C(c1cccnc1)N1CCOCC1)c(O)c1ccccc12` (configuration not stated), the EC50 is > 40 µM (inactive).

As to `O=C(COc1ccc([N+](=O)[O-])cc1)N(Cc1ccccc1)Cc1ccccc1`, the EC50 is > 40 µM (inactive).

For `CC(C)=C1C(=O)NN(c2ccc(C)c(Cl)c2)C1=O`, the EC50 is > 40 µM (inactive).

Take `O=C1/C(=C/c2cccnc2)CCC/C1=C\c1cccnc1`: the EC50 was > 40 µM (inactive).

On to `CCOc1ccc(NCc2nc3ccccc3n2CCOc2ccccc2)cc1`, for which the EC50 was > 40 µM (inactive).

As for `CCOc1ccc(OCC(=O)c2c(O)c3ccccc3oc2=O)cc1`, the EC50 was > 40 µM (inactive).

`CCCCC1C(=O)CC[C@H]2[C@@H]1CC(=O)[C@@H]2C/C=C\CCCC(=O)O` (some centres not stated): the EC50 was > 40 µM (inactive).

In the case of `CCOC(=O)C(=Cc1ccc(F)cc1)C(=O)OCC`, the EC50 was > 40 µM (inactive).

In the case of `CCOC(=O)C1=C(N)OC2=C(C(=O)CCC2)C1c1sccc1C` (configuration not stated), the EC50 was > 40 µM (inactive).

`O=c1c(Cl)c(NCCCO)cnn1-c1nc2ccccc2[nH]1`: the EC50 was > 40 µM (inactive).

Turning to `CCOc1cc(Br)c(Br)c(C=Nc2ccc(NC(C)=O)cc2)c1O`, the EC50 is > 40 µM (inactive).

Turning to `O=C(COc1ccc2ccccc2c1)Nc1cccc(C(=O)Nc2ccccc2C(=O)O)c1`, the EC50 was > 40 µM (inactive).

For `Cc1c(NC(=O)C(=O)/C=C(\O)c2ccc(Cl)cc2)c(=O)n(-c2ccccc2)n1C`, the EC50 is > 40 µM (inactive).

For the compound `CCN(CCO)C(=O)C12CCC(C)(C(=O)C1)C2(C)C` (configuration not stated), the EC50 is > 40 µM (inactive).

In the case of `CC(C)(C)C1CCc2[nH]nc(C(=O)O)c2C1` (configuration not stated), the EC50 was > 40 µM (inactive).

As to `CC(C)c1nnc(NC(=O)c2c(O)c3cccc4c3n(c2=O)CCC4)s1`, the EC50 is > 40 µM (inactive).

`Cc1cc(N=Cc2c(O)ccc3ccccc23)no1`: the EC50 is > 40 µM (inactive).

For the compound `CC1CCCCN1C(=S)Nc1ccc2nc3n(c(=O)c2c1)CCCCC3` (configuration not stated), the EC50 was > 40 µM (inactive).

Turning to `N#Cc1c(-c2ccccc2)c(-c2ccccc2)nn(CC(=O)NNC(=O)Nc2ccccc2)c1=O`, the EC50 is > 40 µM (inactive).

For `COc1ccc(C(CNC(=O)c2cccc(Br)c2)N2CCCC2)cc1` (configuration not stated), the EC50 was > 40 µM (inactive).

Take `O=c1c2ccccc2sn1-c1ccccc1`: the EC50 is > 40 µM (inactive).

Take `Cc1ccc(C(C2=C(O)CC(C)(C)CC2=O)C2C(=O)CC(C)(C)CC2=O)o1` (configuration not stated): the EC50 is > 40 µM (inactive).

Turning to `CCn1ncc(/C=N/NC(=O)c2ccc3c(c2)OCO3)c1C`, the EC50 was > 40 µM (inactive).

Turning to `O=c1cc(-c2ccccc2Cl)oc2ccc([N+](=O)[O-])c(O)c12`, the EC50 was > 40 µM (inactive).

`Cc1nn(-c2c(Cl)cc(Cl)cc2Cl)c(=O)c2ccccc12`: the EC50 was > 40 µM (inactive).

For `CC(c1ccco1)N(C(=O)c1ccccc1NS(=O)(=O)c1cc([N+](=O)[O-])ccc1Cl)c1ccccn1` (configuration not stated), the EC50 is > 40 µM (inactive).

`CCn1c(=O)c2ccccc2n2c(SCC(=O)N3CCCc4ccccc43)nnc12`: the EC50 was > 40 µM (inactive).

Consider `O=C(Nc1scc(-c2ccc(F)cc2)c1C(=O)O)c1ccco1`, for which the EC50 was > 40 µM (inactive).

In the case of `CCOC(=O)C1=C(C)Nc2nc(=S)[nH]n2C1c1ccc(Cl)cc1` (configuration not stated), the EC50 is > 40 µM (inactive).

In the case of `COc1ccc(CCN2C(=O)C(O)=C(C(=O)c3ccco3)C2c2cccs2)cc1OC` (configuration not stated), the EC50 was > 40 µM (inactive).

As to `COc1cnc(-c2ccccn2)nc1Sc1cccc(Cl)c1`, the EC50 is > 40 µM (inactive).

Consider `Cc1ccc(C(=O)C2C(=O)c3ccccc3C2=O)cc1`, for which the EC50 is > 40 µM (inactive).

`O=C(NCC1CCCO1)c1c(O)c2ccccc2[nH]c1=O` (configuration not stated): the EC50 is > 40 µM (inactive).

For the compound `CC(=O)Oc1ccc(N(C(C)=O)S(=O)(=O)c2ccc(C)c([N+](=O)[O-])c2)cc1`, the EC50 was > 40 µM (inactive).

As for `CC(C)C(c1nnnn1Cc1ccccc1)N1CCN(Cc2ccc3c(c2)OCO3)CC1` (configuration not stated), the EC50 was > 40 µM (inactive).

Regarding `Cc1ccnc(-n2c(C)cc(/C=C3\C(=O)NC(=S)N(C)C3=O)c2C)c1`, the EC50 was > 40 µM (inactive).

As for `O=C1Nc2ccccc2C12OCC1(CO2)COC2(OC1)C(=O)Nc1ccccc12` (configuration not stated), the EC50 was > 40 µM (inactive).

As to `O=C(O)c1c[nH]c(=S)n1-c1ccc(F)cc1`, the EC50 is > 40 µM (inactive).

Regarding `O=C(Nc1scc(-c2cccs2)c1C(=O)O)c1cccs1`, the EC50 is > 40 µM (inactive).

As to `Cc1cc(C)n(-c2ccc(OCC(=O)O)nn2)n1`, the EC50 was > 40 µM (inactive).

With `O=C(Nc1ccc(Br)cn1)c1cccc(-c2cc3ccccc3oc2=O)c1`, the EC50 was > 40 µM (inactive).

Take `O=C1CC(c2ccc(F)cc2)CC(O)=C1C=NCCN1CCN(C(=O)Nc2ccccc2)CC1` (configuration not stated): the EC50 was > 40 µM (inactive).

With `O=C1c2ccccc2C(=O)N1c1ncc(Cc2ccc(Cl)cc2)s1`, the EC50 was > 40 µM (inactive).

In the case of `O=C1CC(c2ccccc2)CC(O)=C1C=NCCN1CCNCC1` (configuration not stated), the EC50 is > 40 µM (inactive).

Consider `COn1c(SC2CCCCC2)nc2ccccc2c1=O`, for which the EC50 was > 40 µM (inactive).

Take `CSC1=NSC2=NC(=O)/C(=C\c3cccs3)C(=N)N12`: the EC50 was > 40 µM (inactive).

As to `O=C(CSc1nc2ccccc2o1)c1cc2ccccc2oc1=O`, the EC50 is > 40 µM (inactive).

In the case of `Cc1ccc(NC(=O)Nc2nc(-c3ccc(C)s3)cs2)cc1`, the EC50 is > 40 µM (inactive).

With `CCCCOC(=O)n1c(=O)oc2cc(S(=O)(=O)N3CCCCC3)ccc21`, the EC50 was > 40 µM (inactive).

On to `CC(=O)[C@H]1[C@H](c2cccc(Cl)c2)C(C#N)(C#N)[C@@H]2c3ccccc3C=CN21`, for which the EC50 is > 40 µM (inactive).

Consider `CCN(CC)Cc1c(O)c(Cl)cc2c(C)c(C)c(=O)oc12`, for which the EC50 was > 40 µM (inactive).

On to `CCCCn1c(NS(=O)(=O)c2ccc(C)cc2)c(C(=O)OCC)c2nc3ccccc3nc21`, for which the EC50 was > 40 µM (inactive).

With `CCC(C)OC(=O)C1C(c2ccccc2)C(C(=O)O)C1c1ccccc1` (configuration not stated), the EC50 is > 40 µM (inactive).

On to `CC(=O)N1CCN(CCN=CC2=C(O)CC(c3cccs3)CC2=O)CC1` (configuration not stated), for which the EC50 was > 40 µM (inactive).

On to `CC(c1ccccc1)N1CCn2c(nc3cc(NC(=O)c4cccs4)ccc32)C1` (configuration not stated), for which the EC50 was > 40 µM (inactive).

In the case of `O=C(O)c1ccc(O)c(N2C(=O)Nc3ccccc3N2O)c1`, the EC50 is > 40 µM (inactive).

For `CC1=C(C#N)C2C(/C1=N/O)C2(C)C` (configuration not stated), the EC50 was > 40 µM (inactive).

On to `O=Cc1cc2ccccc2nc1SCc1ccc(Cl)cc1`, for which the EC50 is > 40 µM (inactive).

As for `CCOC(=O)Cc1csc(NC(=O)c2c(O)c3ccccc3n(CC(C)C)c2=O)n1`, the EC50 was > 40 µM (inactive).

For `CN(C)/C=C(/C(=O)c1ccc(Cl)cc1Cl)S(=O)(=O)c1ccccc1`, the EC50 is > 40 µM (inactive).

For the compound `Cc1ccc(NC(=O)CN2CCN(CCN=CC3=C(O)CC(c4ccccc4)CC3=O)CC2)cc1` (configuration not stated), the EC50 is > 40 µM (inactive).

With `Cc1ccc(S(=O)(=O)C(C#N)c2nc3ccccc3nc2N2CCCC2)cc1` (configuration not stated), the EC50 was > 40 µM (inactive).

Turning to `O=C1C(Cl)=C(Nc2ccccc2O)C(=O)N1CCc1ccccc1`, the EC50 is > 40 µM (inactive).
